Reference: US7632918B2, “Semi-synthetic glycopeptides with antibiotic activity” (Novartis Vaccines and Diagnostics, Inc., priority 2005, dated 2009)
Converted amounts (≈) assume the structure as drawn.

Assays:
Assay in all cases: MIC, broth microdilution in Meuller-Hinton broth (NCCLS)
[1] = tested on: 3798 S. aureus (GISA); type: cell-based, Staphylococus aureus; conditions: glycopeptides-intermediate clinical isolate
Description: (§1) Antibacterial activity in vitro was investigated by broth microdilution method in Meuller-Hinton broth as recommended by NCCLS. All strains tested were clinical isolates either sensitive or resistant to natural glycopeptides. Results are reported in the tables as MIC (minimal inhibitory concentration) in μg/ml.
(§2) The glycopeptides were tested against a variety of strains, indicated below, including Staphylococus epidermidis, Staphylococus haemolyticus, glycopeptides-intermediate Staphylococus aureus (GISA), glocopeptide-sensitive Enterococcus faecalis (GSE), and glocopeptide-resistant Enterococcus faecalis (GRE). Results are shown in the table as minimum inhibitory concentration (MIC) in units of μg/ml: […]

[2] = tested on: 3797 S. aureus (GISA); type: cell-based, Staphylococus aureus; conditions: glycopeptides-intermediate clinical isolate
Description: as §1, §2

[3] = tested on: 568 E. faecium (GSE); type: cell-based; conditions: glycopeptide-sensitive clinical isolate
Description: as §1, §2

[4] = tested on: 569 E. faecium (GRE); type: cell-based; conditions: glycopeptide-resistant clinical isolate
Description: as §1, §2

[5] = tested on: 533 S. epidermidis; type: cell-based, Staphylococus epidermidis; conditions: clinical isolate
Description: as §1, §2

[6] = tested on: 602 S. haemolyticus; type: cell-based, Staphylococus haemolyticus; conditions: clinical isolate
Description: as §1, §2

[7] = tested on: 560 E. faecalis (GRE); type: cell-based, Enterococcus faecalis; conditions: glycopeptide-resistant clinical isolate
Description: as §1, §2

[8] = tested on: 559 E. faecalis (GSE); type: cell-based, Enterococcus faecalis; conditions: glycopeptide-sensitive clinical isolate
Description: as §1, §2

Compound | MIC 3798 S. aureus (GISA) [1] [µg/mL] | MIC 3797 S. aureus (GISA) [2] [µg/mL] | MIC 568 E. faecium (GSE) [3] [µg/mL] | MIC 569 E. faecium (GRE) [4] [µg/mL] | MIC 533 S. epidermidis [5] [µg/mL] | MIC 602 S. haemolyticus [6] [µg/mL] | MIC 560 E. faecalis (GRE) [7] [µg/mL] | MIC 559 E. faecalis (GSE) [8] [µg/mL]
CCCCc1ccc(CNCC(=O)NC2(C)CC(OC3C(Oc4c5cc6cc4Oc4ccc(cc4Cl)C(O)C4NC(=O)C(NC(=O)C6NC(=O)C(CC(N)=O)NC(=O)C(NC(=O)C(CC(C)C)NC)C(O)c6ccc(c(Cl)c6)O5)c5ccc(O)c(c5)-c5c(O)cc(O)cc5C(C(=O)O)NC4=O)OC(CO)C(O)C3O)OC(C)C2O)cc1 (stereo not drawn) [Compound 182] | 2 (≈ 1.21 µM) | 2 (≈ 1.21 µM) | 0.5 (≈ 0.303 µM) | 32 (≈ 19.4 µM) | 0.25 (≈ 0.151 µM) | 0.5 (≈ 0.303 µM) | 32 (≈ 19.4 µM) | 1 (≈ 0.605 µM)
CNC(CC(C)C)C(=O)NC1C(=O)NC(CC(N)=O)C(=O)NC2C(=O)NC3C(=O)NC(C(=O)NC(C(=O)O)c4cc(O)cc(O)c4-c4cc3ccc4O)C(OC3CC(C)(N)C(O)C(C)O3)c3ccc(cc3)Oc3cc2cc(c3OC2OC(CO)C(O)C(O)C2OC2CC(C)(NC(=O)CNCc3c[nH]c4ccc(OCc5ccccc5)cc34)C(O)C(C)O2)Oc2ccc(cc2Cl)C1O (stereo not drawn) [Compound 224] | 8 (≈ 4.32 µM) | 8 (≈ 4.32 µM) | 1 (≈ 0.54 µM) | 16 (≈ 8.65 µM) | 2 (≈ 1.08 µM) | 2 (≈ 1.08 µM) | >64 | 2 (≈ 1.08 µM)
CNC(CC(C)C)C(=O)NC1C(=O)NC(CC(N)=O)C(=O)NC2C(=O)NC3C(=O)NC(C(=O)NC(C(=O)O)c4cc(O)cc(O)c4-c4cc3ccc4O)C(OC3CC(C)(N)C(O)C(C)O3)c3ccc(cc3)Oc3cc2cc(c3OC2OC(CO)C(O)C(O)C2OC2CC(C)(NC(=O)[C@@H](N)Cc3ccc(OCc4ccccc4)cc3)C(O)C(C)O2)Oc2ccc(cc2Cl)C1O (stereo partly drawn) [Compound 228] | 16 (≈ 8.83 µM) | 16 (≈ 8.83 µM) | 2 (≈ 1.1 µM) | >64 | 4 (≈ 2.21 µM) | 4 (≈ 2.21 µM) | >64 | 2 (≈ 1.1 µM)
CNC(CC(C)C)C(=O)NC1C(=O)NC(CC(N)=O)C(=O)NC2C(=O)NC3C(=O)NC(C(=O)NC(C(=O)NC4C5CC6CC(C5)CC4C6)c4cc(O)cc(O)c4-c4cc3ccc4O)C(OC3CC(C)(N)C(O)C(C)O3)c3ccc(cc3)Oc3cc2cc(c3OC2OC(CO)C(O)C(O)C2OC2CC(C)(N)C(O)C(C)O2)Oc2ccc(cc2Cl)C1O (stereo not drawn) [Compound 213, 2-adamantanamino eremomycin] | 2 (≈ 1.18 µM) | 1 (≈ 0.591 µM) | 0.5 (≈ 0.296 µM) | 4 (≈ 2.37 µM) | 0.25 (≈ 0.148 µM) | 0.25 (≈ 0.148 µM) | 8 (≈ 4.73 µM) | 0.5 (≈ 0.296 µM)
CCCCCCCCCCN(CCCCCCCCCC)CC(=O)NC1(C)CC(OC2C(Oc3c4cc5cc3Oc3ccc(cc3Cl)C(O)C(NC(=O)C(CC(C)C)NC)C(=O)NC(CC(N)=O)C(=O)NC5C(=O)NC3C(=O)NC(C(=O)NC(C(=O)O)c5cc(O)cc(O)c5-c5cc3ccc5O)C(OC3CC(C)(N)C(O)C(C)O3)c3ccc(cc3)O4)OC(CO)C(O)C2O)OC(C)C1O (stereo not drawn) [Compound 194] | 8 (≈ 4.22 µM) | 8 (≈ 4.22 µM) | 2 (≈ 1.06 µM) | 8 (≈ 4.22 µM) | 2 (≈ 1.06 µM) | 2 (≈ 1.06 µM) | 16 (≈ 8.44 µM) | 4 (≈ 2.11 µM)
CNC(CC(C)C)C(=O)NC1C(=O)NC(CC(N)=O)C(=O)NC2C(=O)NC3C(=O)NC(C(=O)NC(C(=O)O)c4cc(O)cc(O)c4-c4cc3ccc4O)C(OC3CC(C)(N)C(O)C(C)O3)c3ccc(cc3)Oc3cc2cc(c3OC2OC(CO)C(O)C(O)C2OC2CC(C)(NC(=O)CNCc3cn(Cc4ccccc4)c4ccccc34)C(O)C(C)O2)Oc2ccc(cc2Cl)C1O (stereo not drawn) [Compound 225] | 4 (≈ 2.18 µM) | 4 (≈ 2.18 µM) | 4 (≈ 2.18 µM) | 16 (≈ 8.72 µM) | 1 (≈ 0.545 µM) | 2 (≈ 1.09 µM) | 64 (≈ 34.9 µM) | 2 (≈ 1.09 µM)
CNC(CC(C)C)C(=O)NC1C(=O)NC(CC(N)=O)C(=O)NC2C(=O)NC3C(=O)NC(C(=O)NC(C(=O)O)c4cc(O)cc(O)c4-c4cc3ccc4O)C(OC3CC(C)(N)C(O)C(C)O3)c3ccc(cc3)Oc3cc2cc(c3OC2OC(CO)C(O)C(O)C2OC2CC(C)(NC(=O)CNCc3cc4ccccc4c4ccccc34)C(O)C(C)O2)Oc2ccc(cc2Cl)C1O (stereo not drawn) [Compound 287] | 16 (≈ 8.86 µM) | 16 (≈ 8.86 µM) | 2 (≈ 1.11 µM) | >64 | 2 (≈ 1.11 µM) | 2 (≈ 1.11 µM) | >64 | 2 (≈ 1.11 µM)
CNC(CC(C)C)C(=O)NC1C(=O)NC(CC(N)=O)C(=O)NC2C(=O)NC3C(=O)NC(C(=O)NC(C(=O)O)c4cc(O)cc(O)c4-c4cc3ccc4O)C(O)c3ccc(c(Cl)c3)Oc3cc2cc(c3OC2OC(CO)C(O)C(O)C2OC2CC(C)(NC(=O)CNc3ccc4ccccc4n3)C(O)C(C)O2)Oc2ccc(cc2Cl)C1O (stereo not drawn) [Compound 298] | 8 (≈ 4.9 µM) | 8 (≈ 4.9 µM) | 4 (≈ 2.45 µM) | >64 | 8 (≈ 4.9 µM) | 8 (≈ 4.9 µM) | 64 (≈ 39.2 µM) | 2 (≈ 1.22 µM)
CCCCc1ccc(CN[C@@H](CCCN)C(=O)NC2(C)CC(OC3C(Oc4c5cc6cc4Oc4ccc(cc4Cl)C(O)C(NC(=O)C(CC(C)C)NC)C(=O)NC(CC(N)=O)C(=O)NC6C(=O)NC4C(=O)NC(C(=O)NC(C(=O)O)c6cc(O)cc(O)c6-c6cc4ccc6O)C(OC4CC(C)(N)C(O)C(C)O4)c4ccc(cc4)O5)OC(CO)C(O)C3O)OC(C)C2O)cc1 (stereo partly drawn) [Compound 242] | 4 (≈ 2.2 µM) | 4 (≈ 2.2 µM) | 0.5 (≈ 0.275 µM) | 8 (≈ 4.4 µM) | 0.25 (≈ 0.137 µM) | 1 (≈ 0.55 µM) | 8 (≈ 4.4 µM) | 1 (≈ 0.55 µM)
CCCCOc1ccc(CNCC(=O)NC2(C)CC(OC3C(Oc4c5cc6cc4Oc4ccc(cc4Cl)C(O)C(NC(=O)C(CC(C)C)NC)C(=O)NC(CC(N)=O)C(=O)NC6C(=O)NC4C(=O)NC(C(=O)NC(C(=O)O)c6cc(O)cc(O)c6-c6cc4ccc6O)C(OC4CC(C)(N)C(O)C(C)O4)c4ccc(cc4)O5)OC(CO)C(O)C3O)OC(C)C2O)cc1 (stereo not drawn) [Compound 193] | 4 (≈ 2.25 µM) | 4 (≈ 2.25 µM) | 1 (≈ 0.563 µM) | 64 (≈ 36 µM) | 0.5 (≈ 0.281 µM) | 1 (≈ 0.563 µM) | 64 (≈ 36 µM) | 2 (≈ 1.13 µM)
CCCCCCCCOc1ccc(CNCC(=O)NC2(C)CC(OC3C(Oc4c5cc6cc4Oc4ccc(cc4Cl)C(O)C(NC(=O)C(CC(C)C)NC)C(=O)NC(CC(N)=O)C(=O)NC6C(=O)NC4C(=O)NC(C(=O)NC(C(=O)NC(C)C67CC8CC(CC(C8)C6)C7)c6cc(O)cc(O)c6-c6cc4ccc6O)C(OC4CC(C)(N)C(O)C(C)O4)c4ccc(cc4)O5)OC(CO)C(O)C3O)OC(C)C2O)cc1 (stereo not drawn) [Compound 266] | >32 | >32 | – | – | 16 (≈ 8.02 µM) | 32 (≈ 16 µM) | – | –
CNC(CC(C)C)C(=O)NC1C(=O)NC(CC(N)=O)C(=O)NC2C(=O)NC3C(=O)NC(C(=O)NC(C(=O)O)c4cc(O)cc(O)c4-c4cc3ccc4O)C(OC3CC(C)(N)C(O)C(C)O3)c3ccc(cc3)Oc3cc2cc(c3OC2OC(CO)C(O)C(O)C2OC2CC(C)(NC(=O)CNC(=O)OC34CC5CC(CC(C5)C3)C4)C(O)C(C)O2)Oc2ccc(cc2Cl)C1O (stereo not drawn) [Compound 222] | – | – | 1 (≈ 0.558 µM) | >64 | – | – | >64 | 2 (≈ 1.12 µM)
CNC(CC(C)C)C(=O)NC1C(=O)NC(CC(N)=O)C(=O)NC2C(=O)NC3C(=O)NC(C(=O)NC(C(=O)O)c4cc(O)cc(O)c4-c4cc3ccc4O)C(OC3CC(C)(N)C(O)C(C)O3)c3ccc(cc3)Oc3cc2cc(c3OC2OC(CO)C(O)C(O)C2OC2CC(C)(NC(=O)CNC(=O)OCC3c4ccccc4-c4ccccc43)C(O)C(C)O2)Oc2ccc(cc2Cl)C1O (stereo not drawn) [Compound 221] | – | – | 0.5 (≈ 0.272 µM) | 64 (≈ 34.8 µM) | – | – | >64 | 0.5 (≈ 0.272 µM)
CCCCCCCCOc1ccc(CNCC(=O)NC2(C)CC(OC3C(Oc4c5cc6cc4Oc4ccc(cc4Cl)C(O)C(NC(=O)C(CC(C)C)NC)C(=O)NC(CC(N)=O)C(=O)NC6C(=O)NC4C(=O)NC(C(=O)NC(C(=O)NC6C7CC8CC(C7)CC6C8)c6cc(O)cc(O)c6-c6cc4ccc6O)C(OC4CC(C)(N)C(O)C(C)O4)c4ccc(cc4)O5)OC(CO)C(O)C3O)OC(C)C2O)cc1 (stereo not drawn) [Compound 265] | >32 | >32 | – | – | 32 (≈ 16.3 µM) | 32 (≈ 16.3 µM) | – | –
